Assay results from US20250360145A1, “CSF-1R INHIBITORS AND USES THEREOF” (Myrobalan Therapeutics, Inc., priority 2022, published 2025).
Where two headings read alike, the source gives them in different places.

What was measured:
[1] = biological target: c-Kit (Homo sapiens (Human), UniProt P10721); assay: Biochemical HTRF kinase assay, c-Kit; conditions: for IC50: recombinant human protein, read-out: cKit IC50; for cKit Fold: selectivity: IC50 of cKit as multiple of IC50 of CSF-1R;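 for all read-outs here: enzyme reaction with substrate and ATP run in 384-well plates for 1 hour at room temperature, kinase activity detected by HTRF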
[2] = biological target: CSF-1R (Homo sapiens (Human), UniProt P07333); assay: Biochemical HTRF kinase assay, CSF-1R; conditions: recombinant human CSF-1R;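 note: enzyme incubated with inhibitor plus a substrate and ATP mix for one hour at room temperature before HTRF detection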
[3] = biological target: PDGFRβ (Homo sapiens (Human), UniProt P09619); assay: Biochemical HTRF kinase assay, PDGFRβ; conditions: for IC50: recombinant human protein, read-out: PDGFR-1β IC50; for PDGFR-1β Fold: selectivity: IC50 of PDGFR-1β as multiple of IC50 of CSF-1R;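 for all read-outs here: kinase reaction with substrate/ATP mix run 1 h at room temperature in 384-well format, HTRF signal detection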
[4] = biological target: FLT3 (Homo sapiens (Human), UniProt P36888); assay: Biochemical HTRF kinase assay, FLT3; conditions: for IC50: recombinant human protein; for FLT3 Fold: selectivity: IC50 of FLT3 as multiple of IC50 of CSF-1R
[5] = tested on: Ba/F3_CSF-1R (stably expressing human CSF-1R kinase); assay: Cell proliferation assay, Ba/F3_CSF-1R; assay type: cell-based; conditions: Ba/F3_CSF-1R cells, 72 hours treatment, read-out: CSF-1R BaF3 EC50
[6] = tested on: EOC2 cell; assay: Cell proliferation assay, EOC2; assay type: cell-based, mouse; conditions: EOC2 cells, 72 hours treatment, read-out: ECO2 EC50

PDGFRβ, sequence (P09619 33-1106): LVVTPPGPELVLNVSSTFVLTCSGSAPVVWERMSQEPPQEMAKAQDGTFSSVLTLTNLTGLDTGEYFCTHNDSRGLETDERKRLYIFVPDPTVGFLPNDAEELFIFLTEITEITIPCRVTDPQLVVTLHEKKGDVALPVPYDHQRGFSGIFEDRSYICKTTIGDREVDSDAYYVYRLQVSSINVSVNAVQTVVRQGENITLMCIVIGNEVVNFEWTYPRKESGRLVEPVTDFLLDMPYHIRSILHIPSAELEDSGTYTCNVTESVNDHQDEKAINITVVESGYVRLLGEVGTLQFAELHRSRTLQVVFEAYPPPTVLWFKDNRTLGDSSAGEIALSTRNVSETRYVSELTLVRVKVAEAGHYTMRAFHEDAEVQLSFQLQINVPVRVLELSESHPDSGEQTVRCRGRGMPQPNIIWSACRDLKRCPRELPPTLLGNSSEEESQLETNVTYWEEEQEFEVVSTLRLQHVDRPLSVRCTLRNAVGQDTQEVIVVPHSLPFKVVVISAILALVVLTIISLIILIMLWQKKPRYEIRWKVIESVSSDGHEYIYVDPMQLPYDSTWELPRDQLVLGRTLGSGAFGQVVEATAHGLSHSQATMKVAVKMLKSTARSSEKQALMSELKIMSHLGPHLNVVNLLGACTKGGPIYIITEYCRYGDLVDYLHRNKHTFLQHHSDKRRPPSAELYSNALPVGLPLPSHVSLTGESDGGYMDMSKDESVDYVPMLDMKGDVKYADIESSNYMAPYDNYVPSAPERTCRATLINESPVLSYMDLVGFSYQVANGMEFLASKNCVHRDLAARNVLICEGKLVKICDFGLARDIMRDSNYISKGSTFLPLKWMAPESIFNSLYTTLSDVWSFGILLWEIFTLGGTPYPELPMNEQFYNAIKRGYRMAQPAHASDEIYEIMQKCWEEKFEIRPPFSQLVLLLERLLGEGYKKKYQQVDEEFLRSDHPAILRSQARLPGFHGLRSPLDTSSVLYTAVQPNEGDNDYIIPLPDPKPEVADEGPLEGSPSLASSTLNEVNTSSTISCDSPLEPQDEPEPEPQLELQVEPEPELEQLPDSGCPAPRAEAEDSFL
c-Kit, sequence (P10721 26-976): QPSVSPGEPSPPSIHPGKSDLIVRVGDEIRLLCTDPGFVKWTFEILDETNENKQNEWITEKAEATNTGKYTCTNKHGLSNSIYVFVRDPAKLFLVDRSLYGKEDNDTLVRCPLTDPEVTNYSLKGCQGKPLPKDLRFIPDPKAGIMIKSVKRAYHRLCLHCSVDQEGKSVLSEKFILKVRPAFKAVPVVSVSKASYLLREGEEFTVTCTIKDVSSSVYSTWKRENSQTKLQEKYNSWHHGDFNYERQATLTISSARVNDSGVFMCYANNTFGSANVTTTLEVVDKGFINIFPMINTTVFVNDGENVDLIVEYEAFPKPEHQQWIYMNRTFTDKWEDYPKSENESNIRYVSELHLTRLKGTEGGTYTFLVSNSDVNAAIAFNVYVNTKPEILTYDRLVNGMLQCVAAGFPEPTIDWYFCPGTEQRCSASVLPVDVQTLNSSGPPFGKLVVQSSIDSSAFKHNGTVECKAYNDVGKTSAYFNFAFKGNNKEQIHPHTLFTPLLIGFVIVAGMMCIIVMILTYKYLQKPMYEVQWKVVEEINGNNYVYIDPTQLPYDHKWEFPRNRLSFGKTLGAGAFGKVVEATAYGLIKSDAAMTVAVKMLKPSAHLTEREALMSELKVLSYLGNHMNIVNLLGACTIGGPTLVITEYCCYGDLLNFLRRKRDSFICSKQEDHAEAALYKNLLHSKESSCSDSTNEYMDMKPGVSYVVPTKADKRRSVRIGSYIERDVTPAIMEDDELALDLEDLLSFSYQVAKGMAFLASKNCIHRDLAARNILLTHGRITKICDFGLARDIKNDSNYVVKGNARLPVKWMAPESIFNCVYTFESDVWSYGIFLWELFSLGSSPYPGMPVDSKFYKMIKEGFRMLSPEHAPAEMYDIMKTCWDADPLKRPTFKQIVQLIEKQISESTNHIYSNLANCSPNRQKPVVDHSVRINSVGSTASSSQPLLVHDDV
FLT3, sequence (P36888 27-993): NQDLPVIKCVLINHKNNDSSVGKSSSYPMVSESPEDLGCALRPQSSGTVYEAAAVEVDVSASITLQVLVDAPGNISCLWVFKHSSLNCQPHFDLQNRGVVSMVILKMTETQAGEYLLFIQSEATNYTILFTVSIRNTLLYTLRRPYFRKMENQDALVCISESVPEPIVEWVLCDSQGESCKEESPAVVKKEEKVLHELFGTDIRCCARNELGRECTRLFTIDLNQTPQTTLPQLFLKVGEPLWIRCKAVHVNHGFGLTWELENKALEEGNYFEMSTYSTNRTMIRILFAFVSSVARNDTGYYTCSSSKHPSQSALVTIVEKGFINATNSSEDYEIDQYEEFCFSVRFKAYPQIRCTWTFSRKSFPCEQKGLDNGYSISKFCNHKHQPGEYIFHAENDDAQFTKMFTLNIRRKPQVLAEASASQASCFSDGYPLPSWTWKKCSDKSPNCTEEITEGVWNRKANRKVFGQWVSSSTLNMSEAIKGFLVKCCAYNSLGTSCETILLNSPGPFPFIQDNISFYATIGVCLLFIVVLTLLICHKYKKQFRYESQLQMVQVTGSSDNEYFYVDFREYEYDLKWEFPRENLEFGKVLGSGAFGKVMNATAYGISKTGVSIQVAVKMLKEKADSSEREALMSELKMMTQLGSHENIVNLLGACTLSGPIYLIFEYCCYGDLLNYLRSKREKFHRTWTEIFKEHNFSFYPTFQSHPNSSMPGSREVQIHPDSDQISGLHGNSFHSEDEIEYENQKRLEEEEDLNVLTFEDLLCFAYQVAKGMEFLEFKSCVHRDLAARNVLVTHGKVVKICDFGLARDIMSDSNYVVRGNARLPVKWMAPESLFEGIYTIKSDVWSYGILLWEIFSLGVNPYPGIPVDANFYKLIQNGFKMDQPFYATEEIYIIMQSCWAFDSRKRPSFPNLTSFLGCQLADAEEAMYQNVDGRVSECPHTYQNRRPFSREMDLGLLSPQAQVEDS
CSF-1R, sequence (P07333 20-972): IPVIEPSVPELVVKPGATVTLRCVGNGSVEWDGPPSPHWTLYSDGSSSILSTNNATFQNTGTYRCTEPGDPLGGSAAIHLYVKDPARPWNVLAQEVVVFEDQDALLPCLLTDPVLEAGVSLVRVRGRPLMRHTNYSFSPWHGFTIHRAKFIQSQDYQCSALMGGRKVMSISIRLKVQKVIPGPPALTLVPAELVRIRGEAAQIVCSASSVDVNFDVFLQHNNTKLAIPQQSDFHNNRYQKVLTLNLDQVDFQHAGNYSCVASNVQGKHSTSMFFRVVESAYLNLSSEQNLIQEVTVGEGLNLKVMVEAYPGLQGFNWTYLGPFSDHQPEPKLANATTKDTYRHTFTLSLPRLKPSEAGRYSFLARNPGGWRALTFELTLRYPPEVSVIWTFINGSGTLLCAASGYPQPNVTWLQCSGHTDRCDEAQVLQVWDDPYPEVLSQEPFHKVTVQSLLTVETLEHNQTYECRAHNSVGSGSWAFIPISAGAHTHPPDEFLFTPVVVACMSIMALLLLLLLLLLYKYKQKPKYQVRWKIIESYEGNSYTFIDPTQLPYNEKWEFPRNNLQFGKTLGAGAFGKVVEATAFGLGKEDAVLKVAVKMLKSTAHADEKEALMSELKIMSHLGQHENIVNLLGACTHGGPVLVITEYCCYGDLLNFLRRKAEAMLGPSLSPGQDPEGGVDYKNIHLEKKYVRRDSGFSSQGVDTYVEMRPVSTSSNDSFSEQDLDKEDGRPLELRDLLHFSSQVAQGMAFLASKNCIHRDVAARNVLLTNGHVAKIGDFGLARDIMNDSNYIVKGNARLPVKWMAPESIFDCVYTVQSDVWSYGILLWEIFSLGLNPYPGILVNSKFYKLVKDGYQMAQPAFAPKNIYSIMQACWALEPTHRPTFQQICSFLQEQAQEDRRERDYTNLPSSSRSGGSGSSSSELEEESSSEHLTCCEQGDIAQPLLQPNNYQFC

Structure (SMILES): COc1cnc2c(Cc3cnc(OCc4ccc([C@H]5CC5(F)F)cn4)c(OC)c3)ccnc2c1 (stereo in doubt) [Example 80]
- IC50 [1]: 0.214 µM
- cKit Fold [1]: 53.4 fold
- IC50 ([2]; Table 2): 0.004 µM
- IC50 ([2]; Table 3): 0.004 µM
- IC50 [3]: 0.049 µM
- PDGFR-1β Fold [3]: 12.3 fold
- IC50 [4]: > 1 µM
- FLT3 Fold [4]: >100 fold
- EC50 ([5]; BaF3, 72 h): 0.0507 µM
- EC50 [6]: 0.0298 µM

Structure (SMILES): COc1cnc2c(Cc3cnc(OCc4ccc([C@H]5CC5(F)F)cn4)c(OC)c3)ccnc2c1 (stereo in doubt) [Example 81]
- IC50 [1]: > 1 µM
- cKit Fold [1]: >100 fold
- IC50 ([2]; Table 2): 0.0051 µM
- IC50 ([2]; Table 3): 0.0051 µM
- IC50 [3]: 0.371 µM
- PDGFR-1β Fold [3]: 72.7 fold
- IC50 [4]: > 1 µM
- FLT3 Fold [4]: >100 fold
- EC50 [5]: 0.0258 µM
- EC50 [6]: 0.0609 µM

Structure (SMILES): COc1ccc(COc2ncc(Cc3ccnc4cccnc34)cc2OC)nc1 [Example 15, 4-((5-methoxy-6-((5-methoxypyridin-2-yl)methoxy)pyridin-3-yl)methyl)-1,5-naphthyridine]
- IC50 [1]: > 1 µM
- cKit Fold [1]: >100 fold
- IC50 ([2]; Table 2): 0.0098 µM
- IC50 ([2]; Table 3): 0.0098 µM
- IC50 [3]: > 1 µM
- PDGFR-1β Fold [3]: >100 fold
- IC50 [4]: > 1 µM
- FLT3 Fold [4]: >100 fold
- EC50 ([5]; BaF3, 72 h): 0.437 µM
- EC50 ([6]; Mus musculus, 72 h): 0.253 µM

Structure (SMILES): COc1cnc2c(Cc3cnc(OCc4ccc(C)cn4)c(OC)c3)ccnc2c1 [Example 55]
- IC50 [1]: 0.785 µM
- cKit Fold [1]: >100 fold
- IC50 ([2]; Table 2): 0.0032 µM
- IC50 ([2]; Table 3): 0.0032 µM
- IC50 [3]: 0.322 µM
- PDGFR-1β Fold [3]: >100 fold
- IC50 [4]: > 1 µM
- FLT3 Fold [4]: >100 fold
- EC50 ([5]; BaF3, 72 h): 0.155 µM
- EC50 ([6]; Mus musculus, 72 h): 0.0454 µM

Structure (SMILES): COc1cnc2c(Cc3cnc(OCc4cc(C5CC5)n(C)n4)c(OC)c3)ccnc2c1 [Example 109]
- IC50 ([2]; Table 2): 0.0011 µM
- EC50 ([5]; BaF3, 72 h): 0.102 µM
- EC50 ([6]; Mus musculus, 72 h): 0.0437 µM

Structure (SMILES): COc1cnc2c(Cc3cnc(OCc4cc5n(n4)C[C@H](C(F)(F)F)C5)c(OC)c3)ccnc2c1 [Example 110]
- IC50 ([2]; Table 2): 0.0034 µM
- EC50 ([5]; BaF3, 72 h): 0.109 µM
- EC50 ([6]; Mus musculus, 72 h): 0.0362 µM

Structure (SMILES): COc1cnc2c(Cc3cnc(OCc4cc5n(n4)[C@H]4C[C@H]4C5)c(OC)c3)ccnc2c1 [Example 111]
- IC50 ([2]; Table 2): 0.0022 µM
- EC50 ([5]; BaF3, 72 h): 0.035 µM
- EC50 ([6]; Mus musculus, 72 h): 0.0174 µM

Structure (SMILES): COc1cnc2c(Cc3cnc(OCc4cc(C(C)(C)OC)n(C)n4)c(OC)c3)ccnc2c1 [Example 113]
- IC50 ([2]; Table 2): 0.0123 µM
- EC50 ([5]; BaF3, 72 h): 0.348 µM
- EC50 ([6]; Mus musculus, 72 h): 0.143 µM

Structure (SMILES): COc1cnc2c(Cc3cnc(OCc4cccc(C(=O)N(C)C)n4)c(OC)c3)ccnc2c1 [Example 117]
- IC50 ([2]; Table 2): 0.0211 µM
- EC50 ([5]; BaF3, 72 h): 0.344 µM
- EC50 ([6]; Mus musculus, 72 h): 0.171 µM

Structure (SMILES): COc1cnc2c(Cc3cnc(OCc4cccc(N5CCC5)n4)c(OC)c3)ccnc2c1 [Example 118]
- IC50 ([2]; Table 2): 0.0036 µM
- EC50 ([5]; BaF3, 72 h): 0.0969 µM
- EC50 ([6]; Mus musculus, 72 h): 0.0345 µM

Structure (SMILES): COc1cnc2c(Cc3cnc(OCc4cc5n(n4)[C@@H]4C[C@@H]4C5)c(OC)c3)ccnc2c1 [Example 120]
- IC50 ([2]; Table 2): 0.0019 µM
- EC50 ([5]; BaF3, 72 h): 0.0437 µM
- EC50 ([6]; Mus musculus, 72 h): 0.018 µM

Structure (SMILES): COc1cnc2c(Cc3cnc(OCc4ccc5cnn(C)c5n4)c(OC)c3)ccnc2c1 [Example 122]
- IC50 ([2]; Table 2): 0.014 µM
- EC50 ([5]; BaF3, 72 h): 0.131 µM
- EC50 ([6]; Mus musculus, 72 h): 0.108 µM

Structure (SMILES): COc1cnc2c(Cc3cnc(OCc4cccc(N(C)C(C)=O)n4)c(OC)c3)ccnc2c1 [Example 123]
- IC50 ([2]; Table 2): 0.0525 µM
- EC50 ([5]; BaF3, 72 h): 0.128 µM
- EC50 ([6]; Mus musculus, 72 h): 0.077 µM

Structure (SMILES): COc1cnc2c(Cc3cnc(OCc4cccn(C)c4=O)c(OC)c3)ccnc2c1 [Example 124]
- IC50 ([2]; Table 2): 0.32 µM
- EC50 ([5]; BaF3, 72 h): > 1 µM
- EC50 ([6]; Mus musculus, 72 h): 0.442 µM

Structure (SMILES): COc1cnc2c(Cc3cnc(OCc4cccc(=O)n4C)c(OC)c3)ccnc2c1 [Example 125]
- IC50 ([2]; Table 2): 0.522 µM
- EC50 ([5]; BaF3, 72 h): > 1 µM
- EC50 ([6]; Mus musculus, 72 h): 0.95 µM

Structure (SMILES): COc1ccc(COc2ncc(Cc3ccnc4cc(N5CCC(OC)C5)cnc34)cc2OC)nc1 (stereo not shown) [Example 126]
- IC50 ([2]; Table 2): 0.0122 µM
- EC50 ([5]; BaF3, 72 h): 0.0038 µM
- EC50 ([6]; Mus musculus, 72 h): 0.0024 µM

Structure (SMILES): COc1ccc(COc2ncc(Cc3ccnc4cc(N5CCC5)cnc34)cc2OC)nc1 [Example 127]
- IC50 ([2]; Table 2): 0.0223 µM
- EC50 ([5]; BaF3, 72 h): 0.028 µM
- EC50 ([6]; Mus musculus, 72 h): 0.0254 µM

Structure (SMILES): COc1cnc2c(Cc3cnc(OCc4cc5n(n4)C[C@@H](F)C5)c(OC)c3)ccnc2c1 [Example 128]
- IC50 ([2]; Table 2): 0.0049 µM
- EC50 ([5]; BaF3, 72 h): 0.0215 µM
- EC50 ([6]; Mus musculus, 72 h): 0.0049 µM

Structure (SMILES): COc1cnc2c(Cc3cnc(OCc4ccc5nccn5n4)c(OC)c3)ccnc2c1 [Example 129]
- IC50 ([2]; Table 2): 0.0427 µM
- EC50 ([5]; BaF3, 72 h): 0.307 µM
- EC50 ([6]; Mus musculus, 72 h): 0.166 µM

Structure (SMILES): COc1ccc(COc2ncc(Cc3ccnc4cc(-c5cnn(C)c5)cnc34)cc2OC)nc1 [Example 130]
- IC50 ([2]; Table 2): 0.0016 µM
- EC50 ([5]; BaF3, 72 h): 0.002 µM
- EC50 ([6]; Mus musculus, 72 h): 0.0015 µM

Structure (SMILES): COc1cnc2c(Cc3cnc(OCc4nc5cccnc5n4C)c(OC)c3)ccnc2c1 [Example 132]
- IC50 ([2]; Table 2): 0.879 µM
- EC50 ([5]; BaF3, 72 h): > 1 µM
- EC50 ([6]; Mus musculus, 72 h): > 1 µM
